# Experimental data from patent US20180344696A1, “SYNERGISTIC COMBINATION OF PYRROLIDONE CARBOXYLIC ACID AND/OR SALTS THEREOF AND HYALURONIC ACID AND/OR SALTS THEREOF, FOR USE IN THE TREATMENT AND/OR PREVENTION OF DRYNESS AND IRRITATION OF THE MUCOSAE, AND RELATED PHARMACEUTICAL FORMULATIONS” (LABORATORI BALDACCI S.P.A., priority 2015, published 2018).
# Legend:
# [1] = Determination of PCA permanence on the nasal mucosa (HPLC recovery after applying gel); type: in vivo, human
# Procedure: The samples were taken at various time points after administration, in order to accurately collect all the material present on the mucosa. After restoring to a certain volume of water (20 ml), the suspension obtained was filtered, and then 20 μl were injected into a chromatograph for quantitative analysis. A Waters liquid chromatograph with the following parameters was used: • Column: μBondapack C18 • Mobile phase: 0.1 M phosphoric acid at pH 3 with sodium hydroxide. • Flow: 1.5 ml/min • Detector: Spectrophotometer at 210 nm
# [2] = Permanence of PCA in mucosal tissue after topical application (general statements); type: in vivo
# [3] = Hygroscopic test according to Farmacopea Ufficiale Italiana (FUI) XII; type: physicochemical; conditions: 5.00 g dried sample, 25° C., 24 hours
# Procedure: The determination of hygroscopicity of the combination of PCA and hyaluronic acid was performed, a test related to the hydration capability of a compound or mixture of compounds, to evaluate the synergism of the combination of PCA and hyaluronic acid for use in the treatment and/or prevention of dryness and irritation of the mucosae. […] At the end of the procedure, the contained was closed with its lid and weighed again (m3).
Molecule,"PCA percentage present in the nasal mucosa, % of recovery based on the standard ([1]; T = 0 after administration, 100 mg gel of Example 2 (1% PCA, 0.05% hyaluronic acid) on nasal mucosa) [% n = 1]","PCA percentage present in the nasal mucosa, % of recovery based on the standard ([1]; T = 60 after administration, 100 mg gel of Example 2 on nasal mucosa) [% n = 2]","PCA percentage present in the nasal mucosa, % of recovery based on the standard ([1]; T = 120 after administration, 100 mg gel of Example 2 on nasal mucosa) [% n = 2]","PCA percentage present in the nasal mucosa, % of recovery based on the standard ([1]; T = 180 after administration, 100 mg gel of Example 2 on nasal mucosa) [% n = 3]",Time PCA is present on the nasal mucosa after application ([1]; gel formulation from Example 2 on the nasal mucosa) [h],Administered amount of PCA identified in mucosal tissues ([2]; 4 hours after a topical application of the formulations of the invention),Time PCA remains in the mucosae ([2]; after topical application) [h],Result (hygroscopicity class) [3],Water adsorption (%) (average of the triplicate) [3],Water adsorption (g) (average of the triplicate) [3],Final Weight ([3]; desiccator with saturated ammonium chloride or ammonium sulfate solution) [g]
"O=C1CCC(C(=O)O)N1 (centres unmarked) [PCA, Pyrrolidone carboxylic acid]",95,80,78,70,≥ 4,approximately 80%,> 4,,,,
Hyaluronic acid [100% HA],,,,,,,,hygroscopic,6.00,0.30,5.30 ± 0.05
